Assay results reported in US20240336654A1, “ANTIMICROBIAL PEPTIDOMIMETICS” (SPEXIS AG, priority 2021, published 2024).
Where a SMILES comes first, the peptide text is derived from it. Bridges are numbered along the chain shown (N, C = ends). [ ]: non-standard residue; d: D form. Dab(iPr) = CC(C)NCC[C@H](N)C(=O)O; Hyp = O=C(O)[C@@H]1C[C@@H](O)CN1; Cha = N[C@@H](CC1CCCCC1)C(=O)O; Cit = NC(=O)NCCC[C@H](N)C(=O)O; Pen = CC(C)(S)[C@H](N)C(=O)O; dDab = NCC[C@@H](N)C(=O)O; Orn = NCCC[C@H](N)C(=O)O; Dab = NCC[C@H](N)C(=O)O

How the values were obtained:
Format in all cases: cell-based
[1] = test system: Escherichia coli ATCC 25922; conditions: ATCC 25922
Procedure, shortened: (§1)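 MICs were determined by CLSI broth microdilution in cation-adjusted Mueller-Hinton II broth with about 5×10^5 CFU/mL inoculum. Peptides were tested in two-fold serial dilutions with 0.002% polysorbate 80 final. MIC in μg/mL is the lowest concentration with no visible growth after 18-20 h at 35 °C.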

[2] = test system: Escherichia coli MCR-1 Af 45; conditions: MCR-1 Af 45
Procedure, shortened: as §1

[3] = test system: Klebsiella pneumoniae SSI3010; conditions: SSI3010
Procedure, shortened: as §1

[4] = test system: human red blood cells (hRBC); conditions: red cells of human, 1 h, 200 μg/mL
Procedure, shortened: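 Peptides at 200 μg/mL incubated 1 h at 37 °C with 20% (v/v) washed human RBC, shaking. Hemolysis from supernatant OD540, expressed as percent of 2.5% Triton X-100 lysis, with PBS as 0%.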

SMILES	Escherichia coli ATCC 25922 MIC [1] [µg/mL]	Escherichia coli MCR-1 Af45 MIC [2] [µg/mL]	Klebsiella pneumoniae SSI3010 MIC [3] [µg/mL]	Hemolysis at 0.2 g/L [4] [%]
CC[C@H](C)[C@H](NC(=O)[C@@H]1C[C@@H](O)CN1C(=O)[C@@H](N)C(C)C)C(=O)N[C@@H]1C(=O)N[C@@H](Cc2ccc(O)cc2)C(=O)N[C@@H](CO)C(=O)N[C@@H](CC(N)=O)C(=O)N[C@@H](CCCNC(=N)N)C(=O)N[C@@H](CCN)C(=O)N[C@@H]([C@@H](C)O)C(=O)N[C@H](CCN)C(=O)N[C@@H](CCCCN)C(=O)N[C@@H](CCCN)C(=O)N[C@@H](CO)C(=O)N[C@H](C(=O)N[C@@H](Cc2ccc(O)cc2)C(=O)O)CSSC1(C)C [Example 55, Val-Hyp-Ile-Pen-Tyr-Ser-Asn-Arg-Dab-Thr-^DDab-Lys-Orn-Ser-Cys-Tyr] (H-V[Hyp]I[Pen]YSNR[Dab]T[dDab]K[Orn]SCY-OH; disulfide 4-15)	0.25	0.25	0.5	<1
CC[C@H](C)[C@H](NC(=O)[C@@H]1C[C@@H](O)CN1C(=O)[C@@H](N)C(C)C)C(=O)N[C@@H]1C(=O)N[C@@H](Cc2ccc(O)cc2)C(=O)N[C@@H](CCN)C(=O)N[C@@H](CC(N)=O)C(=O)N[C@@H](CCCNC(=N)N)C(=O)N[C@@H](CCN)C(=O)N[C@@H]([C@@H](C)O)C(=O)N[C@H](CCN)C(=O)N[C@@H](CCCCN)C(=O)N[C@@H](CCN)C(=O)N[C@@H](CO)C(=O)N[C@H](C(=O)N[C@@H](Cc2ccc(O)cc2)C(=O)O)CSSC1(C)C [Example 56, Val-Hyp-Ile-Pen-Tyr-Dab-Asn-Arg-Dab-Thr-^DDab-Lys-Dab-Ser-Cys-Tyr] (H-V[Hyp]I[Pen]Y[Dab]NR[Dab]T[dDab]K[Dab]SCY-OH; disulfide 4-15)	0.25	0.125	0.25	<1
CC[C@H](C)[C@H](NC(=O)[C@@H]1C[C@@H](O)CN1C(=O)[C@@H](N)C(C)C)C(=O)N[C@@H]1C(=O)N[C@@H](Cc2ccc(O)cc2)C(=O)N[C@@H](CO)C(=O)N[C@@H](CC(N)=O)C(=O)N[C@@H](CCCNC(=N)N)C(=O)N[C@@H](CCN)C(=O)N[C@@H]([C@@H](C)O)C(=O)N[C@H](CCN)C(=O)N[C@@H](CCCCN)C(=O)N[C@@H](CCN)C(=O)N[C@H](CCN)C(=O)N[C@H](C(=O)N[C@@H](Cc2ccc(O)cc2)C(=O)O)CSSC1(C)C [Example 58, Val-Hyp-Ile-Pen-Tyr-Ser-Asn-Arg-Dab-Thr-^DDab-Lys-Dab-^DDab-Cys-Tyr] (H-V[Hyp]I[Pen]YSNR[Dab]T[dDab]K[Dab][dDab]CY-OH; disulfide 4-15)	0.125	0.125	0.25	<1
CC[C@H](C)[C@H](NC(=O)[C@@H]1C[C@@H](O)CN1C(=O)[C@@H](N)C(C)C)C(=O)N[C@@H]1C(=O)N[C@@H](Cc2ccc(O)cc2)C(=O)N[C@@H](CO)C(=O)N[C@@H](CC(N)=O)C(=O)N[C@@H](CCCNC(=N)N)C(=O)N[C@@H](CCN)C(=O)N[C@@H]([C@@H](C)O)C(=O)N[C@H](CCN)C(=O)N[C@@H](CCCCN)C(=O)N[C@@H](CCN)C(=O)N[C@@H](CCCNC(N)=O)C(=O)N[C@H](C(=O)N[C@@H](Cc2ccc(O)cc2)C(=O)O)CSSC1(C)C [Example 59, Val-Hyp-Ile-Pen-Tyr-Ser-Asn-Arg-Dab-Thr-^DDab-Lys-Dab-Cit-Cys-Tyr] (H-V[Hyp]I[Pen]YSNR[Dab]T[dDab]K[Dab][Cit]CY-OH; disulfide 4-15)	0.25	0.25	0.5	<1
CC[C@H](C)[C@H](NC(=O)[C@@H]1C[C@@H](O)CN1C(=O)[C@@H](N)C(C)C)C(=O)N[C@@H]1C(=O)N[C@@H](Cc2ccc(O)cc2)C(=O)N[C@@H](CO)C(=O)N[C@@H](CC(N)=O)C(=O)N[C@@H](CCCNC(=N)N)C(=O)N[C@@H](CCN)C(=O)N[C@@H]([C@@H](C)O)C(=O)N[C@H](CCN)C(=O)N[C@@H](CCCCN)C(=O)N[C@@H](CCN)C(=O)N[C@@H](Cc2ccc(O)cc2)C(=O)N[C@H](C(=O)N[C@@H](Cc2ccc(O)cc2)C(=O)O)CSSC1(C)C [Example 60, Val-Hyp-Ile-Pen-Tyr-Ser-Asn-Arg-Dab-Thr-^DDab-Lys-Dab-Tyr-Cys-Tyr] (H-V[Hyp]I[Pen]YSNR[Dab]T[dDab]K[Dab]YCY-OH; disulfide 4-15)	0.25	0.25	1	<1
CC[C@H](C)[C@H](NC(=O)[C@@H]1C[C@@H](O)CN1C(=O)[C@@H](N)C(C)C)C(=O)N[C@@H]1C(=O)N[C@@H](Cc2ccc(O)cc2)C(=O)N[C@@H](CO)C(=O)N[C@@H](CC(N)=O)C(=O)N[C@@H](CCCNC(=N)N)C(=O)N[C@@H](CCN)C(=O)N[C@@H]([C@@H](C)O)C(=O)N[C@H](CCN)C(=O)N[C@@H](CCCCN)C(=O)N[C@@H](CCN)C(=O)N[C@@H](CC(N)=O)C(=O)N[C@H](C(=O)N[C@@H](Cc2ccc(O)cc2)C(=O)O)CSSC1(C)C [Example 61, Val-Hyp-Ile-Pen-Tyr-Ser-Asn-Arg-Dab-Thr-^DDab-Lys-Dab-Asn-Cys-Tyr] (H-V[Hyp]I[Pen]YSNR[Dab]T[dDab]K[Dab]NCY-OH; disulfide 4-15)	0.25	0.25	0.5	<1
CC[C@H](C)[C@H](NC(=O)[C@@H]1C[C@@H](O)CN1C(=O)[C@@H](N)C(C)C)C(=O)N[C@@H]1C(=O)N[C@@H](Cc2ccc(O)cc2)C(=O)N[C@@H](CO)C(=O)N[C@@H](CC(N)=O)C(=O)N[C@@H](CCCNC(=N)N)C(=O)N[C@@H](CCN)C(=O)N[C@@H]([C@@H](C)O)C(=O)N[C@H](CCN)C(=O)N[C@@H](CCCCN)C(=O)N[C@@H](CCN)C(=O)N[C@@H](CCCCN)C(=O)N[C@H](C(=O)N[C@@H](Cc2ccc(O)cc2)C(=O)O)CSSC1(C)C [Example 62, Val-Hyp-Ile-Pen-Tyr-Ser-Asn-Arg-Dab-Thr-^DDab-Lys-Dab-Lys-Cys-Tyr] (H-V[Hyp]I[Pen]YSNR[Dab]T[dDab]K[Dab]KCY-OH; disulfide 4-15)	0.125	0.0625	0.25	<1
CC[C@H](C)[C@H](NC(=O)[C@@H]1C[C@@H](O)CN1C(=O)[C@@H](N)C(C)C)C(=O)N[C@@H]1C(=O)N[C@@H](Cc2ccc(O)cc2)C(=O)N[C@@H](CO)C(=O)N[C@@H](CC(N)=O)C(=O)N[C@@H](CCCNC(=N)N)C(=O)N[C@@H](CCN)C(=O)N[C@@H]([C@@H](C)O)C(=O)N[C@H](CCN)C(=O)N[C@@H](CCCCN)C(=O)N[C@@H](CCN)C(=O)N[C@@H](CCNC(C)C)C(=O)N[C@H](C(=O)N[C@@H](Cc2ccc(O)cc2)C(=O)O)CSSC1(C)C [Example 63, Val-Hyp-Ile-Pen-Tyr-Ser-Asn-Arg-Dab-Thr-^DDab-Lys-Dab-Dab(iPr)-Cys-Tyr] (H-V[Hyp]I[Pen]YSNR[Dab]T[dDab]K[Dab][Dab(iPr)]CY-OH; disulfide 4-15)	0.125	0.0625	0.25	<1
CC[C@H](C)[C@H](NC(=O)[C@@H]1C[C@@H](O)CN1C(=O)[C@@H](N)C(C)C)C(=O)N[C@@H]1C(=O)N[C@@H](Cc2ccc(O)cc2)C(=O)N[C@@H](CO)C(=O)N[C@@H](CC(N)=O)C(=O)N[C@@H](CCCNC(=N)N)C(=O)N[C@@H](CCN)C(=O)N[C@@H]([C@@H](C)O)C(=O)N[C@H](CCN)C(=O)N[C@@H](CCCCN)C(=O)N[C@@H](CCN)C(=O)N[C@@H](CCCN)C(=O)N[C@H](C(=O)N[C@@H](Cc2ccc(O)cc2)C(=O)O)CSSC1(C)C [Example 64, Val-Hyp-Ile-Pen-Tyr-Ser-Asn-Arg-Dab-Thr-^DDab-Lys-Dab-Orn-Cys-Tyr] (H-V[Hyp]I[Pen]YSNR[Dab]T[dDab]K[Dab][Orn]CY-OH; disulfide 4-15)	0.0625	0.0625	0.125	<1
CC[C@H](C)[C@H](NC(=O)[C@@H]1C[C@@H](O)CN1C(=O)[C@@H](N)C(C)C)C(=O)N[C@@H]1C(=O)N[C@@H](Cc2ccc(O)cc2)C(=O)N[C@@H](CO)C(=O)N[C@@H](CC(N)=O)C(=O)N[C@@H](CCCNC(=N)N)C(=O)N[C@@H](CCN)C(=O)N[C@@H]([C@@H](C)O)C(=O)N[C@H](CCN)C(=O)N[C@@H](CCCCN)C(=O)N[C@@H](CCN)C(=O)N[C@@H](CCN)C(=O)N[C@H](C(=O)N[C@@H](CC2CCCCC2)C(=O)O)CSSC1(C)C [Example 65, Val-Hyp-Ile-Pen-Tyr-Ser-Asn-Arg-Dab-Thr-^DDab-Lys-Dab-Dab-Cys-Cha] (H-V[Hyp]I[Pen]YSNR[Dab]T[dDab]K[Dab][Dab]C[Cha]-OH; disulfide 4-15)	0.25	0.0625	0.25	<1
